# Measured values: patent US12583852B2, “Heterocycle derivative” (JW PHARMACEUTICAL CORPORATION, priority 2018, dated 2026)
# Test system: human dermal papilla cells
# Test: Promotion of proliferation of human dermal papilla cells (CellTiter-Glo Luminescent cell viability assay)
# Format: cell-based
# Settings: human dermal papilla cells (ScienCell, 2499); drug 0 to 30 μM; 48 hours; CellTiter-Glo luminescence; compared to DMSO-treated control group
# Protocol: The effect of promoting cell proliferation by the drug was analyzed using human dermal papilla cells (ScienCell, 2499). Human dermal papilla cells cultured using Mesenchymal Stem Cell Medium (ScienCell, 7501) medium were seeded at a density of 3×10^3 cells/well and in a volume of 100 μl in a 96-well plate, incubated overnight at 37° C. and 5% CO2, treated with the drug at different concentrations ranging from 0 to 30 μM in a volume of 100 μL, and incubated at 37° C. and 5% CO2 for 48 hours. CellTiter-Glo Luminescent cell viability assay was performed according to the manufacturer's protocol (Promega, G7573) to detect cell proliferation. Luminescence was measured using an Envision 2102 multilabeled reader (PerkinElmer) equipment, and the cell proliferation rate was analyzed by the activity of the drug-treated group compared to the DMSO-treated group (control group), which is a solvent of the drug.
row,Molecule,Maximum DP cell proliferation (%)
1,"O/N=N\c1n[nH]c2nc(Nc3cccc4c3CCC4)c(F)cc12 [Example 122, (Z)-N-(2,3-dihydro-1H-inden-4-yl)-5-fluoro-3-(hydroxydiazenyl)-1H-pyrazolo[3,4-b]pyridin-6-amine]",5.3
2,"Nc1n[nH]c2nc(Nc3cccc4ccccc34)ccc12 [Compound 35, N6-(naphthalen-1-yl)-1H-pyrazolo[3,4-b]pyridine-3,6-diamine]",1.2
3,"Cc1ccc2cccc(Nc3nc4[nH]nc(N)c4cc3F)c2c1 [Compound 31, 5-fluoro-N6-(7-methyl-1-naphthyl)-1H-pyrazolo[3,4-b]pyridine-3,6-diamine]",3.2
4,"Cc1cccc(Nc2nc3[nH]nc(N)c3cc2F)c1C [Compound 12, N6-(2,3-dimethylphenyl)-5-fluoro-1H-pyrazolo[3,4-b]pyridine-3,6-diamine]",5.4
5,"3-chloro-N-(2,3-dihydro-1H-inden-4-yl)-5-fluoro-1H-pyrazolo[3,4-b]pyridin-6-amine [Compound 8]",7.9
6,"Cn1nc(N)c2cc(F)c(Nc3cccc4c3CCC4)nc21 [Compound 90, N6-(2,3-dihydro-1H-inden-4-yl)-5-fluoro-1-methyl-1H-pyrazolo[3,4-b]pyridine-3,6-diamine]",13
7,"Nc1nn(CC(=O)c2ccccc2)c2nc(Nc3cccc4c3CCC4)c(F)cc12 [Compound 100, 2-(3-amino-6-((2,3-dihydro-1H-inden-4-yl)amino)-5-fluoro-1H-pyrazolo[3,4-b]pyridin-1-yl)-1-phenylethan-1-one]",0.8
8,"Fc1cc2c(-c3ccccc3)n[nH]c2nc1Nc1cccc2c1CCC2 [Example 109, 5-fluoro-N-indan-4-yl-3-phenyl-1H-pyrazolo[3,4-b]pyridin-6-amine]",3.6
9,"Nc1n[nH]c2nc(Nc3cccc4occc34)c(F)cc12 [Compound 10, N6-(benzofuran-4-yl)-5-fluoro-1H-pyrazolo[3,4-b]pyridine-3,6-diamine]",13
10,"O=C(Nc1n[nH]c2nc(Nc3cccc4c3CCC4)c(F)cc12)C1CCCC1 [Compound 89, N-(6-((2,3-dihydro-1H-inden-4-yl)amino)-5-fluoro-1H-pyrazolo[3,4-b]pyridin-3-yl)cyclopentanecarboxamide]",0.4
11,"Nc1n[nH]c2nc(Nc3cccc(Cl)c3Cl)c(F)cc12 [Compound 59, N6-(2,3-dichlorophenyl)-5-fluoro-1H-pyrazolo[3,4-b]pyridine-3,6-diamine]",15
12,"Nc1n[nH]c2nc(Nc3cccc4c3CNC4=O)c(F)cc12 [Compound 53, 4-((3-amino-5-fluoro-1H-pyrazolo[3,4-b]pyridin-6-yl)amino)isoindolin-1-one]",2.4
13,"Nc1n[nH]c2nc(Nc3cc(F)cc(C(F)(F)F)c3F)c(F)cc12 [Compound 73, N6-[2,5-difluoro-3-(trifluoromethyl)phenyl]-5-fluoro-1H-pyrazolo[3,4-b]pyridine-3,6-diamine]",14
14,"Nc1n[nH]c2nc(Nc3cccc4c3CCC4(F)F)c(F)cc12 [Compound 85, N6-(1,1-difluoro-2,3-dihydro-1H-inden-4-yl)-5-fluoro-1H-pyrazolo[3,4-b]pyridine-3,6-diamine]",15
15,"CS(=O)(=O)Nc1n[nH]c2nc(Nc3cccc4c3CCC4)c(F)cc12 [Example 106, N-(6-((2,3-dihydro-1H-inden-4-yl)amino)-5-fluoro-1H-pyrazolo[3,4-b]pyridin-3-yl)methanesulfonamide]",4.8
16,"Cc1c(Nc2cccc3c2CCC3)nc2[nH]nc(N)c2c1C [Compound 58, N6-(2,3-dihydro-1H-inden-4-yl)-4,5-dimethyl-1H-pyrazolo[3,4-b]pyridine-3,6-diamine]",13
17,"CCCc1cc2c(N)n[nH]c2nc1Nc1cccc2c1CCC2 [Compound 21, N6-(2,3-dihydro-1H-inden-4-yl)-5-propyl-1H-pyrazolo[3,4-b]pyridine-3,6-diamine]",3
18,"CN(C)CCn1nc(N)c2cc(F)c(Nc3cccc4c3CCC4)nc21 [Compound 96, N6-(2,3-dihydro-1H-inden-4-yl)-1-(2-(dimethylamino)ethyl)-5-fluoro-1H-pyrazolo[3,4-b]pyridine-3,6-diamine]",1.2
19,"CC(=O)Nc1n[nH]c2nc(Nc3cccc4c3CCC4)c(F)cc12 [Compound 92, N-(6-((2,3-dihydro-1H-inden-4-yl)amino)-5-fluoro-1H-pyrazolo[3,4-b]pyridin-3-yl)acetamide]",8
20,"Nc1n[nH]c2nc(Nc3cccc4ccccc34)c(F)cc12 [Compound 24, 5-fluoro-N6-(naphthalen-1-yl)-1H-pyrazolo[3,4-b]pyridine-3,6-diamine]",8

row,Molecule,Maximum DP cell proliferation (%)
1,"CN(C)c1n[nH]c2nc(Nc3cccc4c3CCC4)c(F)cc12 [Example 105, N6-(2,3-dihydro-1H-inden-4-yl)-5-fluoro-N3,N3-dimethyl-1H-pyrazolo[3,4-b]pyridine-3,6-diamine]",12
2,"CC(=O)n1nc(N)c2cc(F)c(Nc3cccc4c3CCC4)nc21 [Compound 88, 1-(3-amino-6-((2,3-dihydro-1H-inden-4-yl)amino)-5-fluoro-1H-pyrazolo[3,4-b]pyridin-1-yl)ethan-1-one]",8
3,"Nc1n[nH]c2nc(Nc3cccc(C(F)(F)F)c3F)cnc12 [Compound 66, N6-[2-fluoro-3-(trifluoromethyl)phenyl]-1H-pyrazolo[3,4-b]pyrazine-3,6-diamine]",25
4,"Nc1n[nH]c2nc(Nc3cccc4c3CCCC4)c(F)cc12 [Compound 19, 5-fluoro-N6-(5,6,7,8-tetrahydronaphthalen-1-yl)-1H-pyrazolo[3,4-b]pyridine-3,6-diamine]",9
5,"Nc1n[nH]c2nc(Nc3cccc4c3CCC4)c(Cl)c(Cl)c12 [Compound 42, 4,5-dichloro-N6-indan-4-yl-1H-pyrazolo[3,4-b]pyridine-3,6-diamine]",16
6,"Nc1n[nH]c2nc(Nc3cccc4c3CCCC4)cnc12 [Compound 45, N6-tetralin-5-yl-1H-pyrazolo[3,4-b]pyrazine-3,6-diamine]",7
7,"Nc1n[nH]c2nc(Nc3ccc(F)c(C(F)(F)F)c3F)c(F)cc12 [Compound 80, N6-(2,4-difluoro-3-(trifluoromethyl)phenyl)-5-fluoro-1H-pyrazolo[3,4-b]pyridine-3,6-diamine]",6
8,"Nc1n[nH]c2nc(Nc3cccc4c3CCC4)nc(Cl)c12 [Example 116, 4-chloro-N6-indan-4-yl-3a,4-didehydro-1H-pyrazolo[3,4-d]pyrimidine-3,6-diamine]",5.9
9,"Nc1n[nH]c2nc(Nc3cccc4c3CCC4)c(-c3ccccc3)cc12 [Compound 23, N6-(2,3-dihydro-1H-inden-4-yl)-5-phenyl-1H-pyrazolo[3,4-b]pyridine-3,6-diamine]",5
10,"Fc1cc2cn[nH]c2nc1Nc1cccc2c1CCC2 [Compound 104, N-(2,3-dihydro-1H-inden-4-yl)-5-fluoro-1H-pyrazolo[3,4-b]pyridin-6-amine]",15
11,"Nc1n[nH]c2nc(Nc3cccc(C(F)(F)F)c3Cl)c(F)cc12 [Compound 77, N6-(2-chloro-3-(trifluoromethyl)phenyl)-5-fluoro-1H-pyrazolo[3,4-b]pyridine-3,6-diamine]",15
12,"Cc1c(F)cccc1Nc1nc2[nH]nc(N)c2cc1F [Compound 82, 5-fluoro-N6-(3-fluoro-2-methylphenyl)-1H-pyrazolo[3,4-b]pyridine-3,6-diamine]",14
13,"N#Cc1cccc(Nc2nc3[nH]nc(N)c3cc2F)c1F [Compound 79, 3-[(3-amino-5-fluoro-1H-pyrazolo[3,4-b]pyridin-6-yl)amino]-2-fluoro-benzonitrile]",3.6
14,"CCOC(=O)c1cc2c(N)n[nH]c2nc1Nc1cccc2c1CCC2 [Compound 14, ethyl 3-amino-6-((2,3-dihydro-1H-inden-4-yl)amino)-1H-pyrazolo[3,4-b]pyridine-5-carboxylate]",5.3
15,"Cc1ccc(Nc2nc3[nH]nc(N)c3cc2F)cc1C [Compound 18, N6-(3,4-dimethylphenyl)-5-fluoro-1H-pyrazolo[3,4-b]pyridine-3,6-diamine]",7.8
16,"Nc1n[nH]c2nc(Nc3cccc4c3COC4)c(F)cc12 [Compound 9, N6-(1,3-dihydroisobenzofuran-4-yl)-5-fluoro-1H-pyrazolo[3,4-b]pyridine-3,6-diamine]",2.6
17,"Nc1n[nH]c2nc(Nc3cccc(C(F)F)c3F)cnc12 [Compound 39, N6-[3-(difluoromethyl)-2-fluoro-phenyl]-1H-pyrazolo[3,4-b]pyrazine-3,6-diamine]",7.9
18,"Nc1n[nH]c2nc(Nc3cccc(C(F)F)c3F)ncc12 [Example 115, N6-(3-(difluoromethyl)-2-fluorophenyl)-1H-pyrazolo[3,4-d]pyrimidine-3,6-diamine]",3.7
19,"Nc1n[nH]c2nc(Nc3cccc(C(F)(F)F)c3F)ccc12 [Compound 65, N6-[2-fluoro-3-(trifluoromethyl)phenyl]-1H-pyrazolo[3,4-b]pyridine-3,6-diamine]",10
